In EP4768499A1, “MACROCYCLIC PEPTIDE COMPOUND HAVING CELL MEMBRANE PERMEABILITY AND METABOLIC STABILITY, AND LIBRARY CONTAINING SAME” (Chugai Seiyaku Kabushiki Kaisha, priority 2023, dated 2025):
Where two headings read alike, the source gives them in different places. Starred links: 1 amine or outer side, 2 acyl side, 3 side chain; linkers in the order of their positions; H or OH if unused. Positions of bridges follow the written chain, without caps; N, C: chain ends. Non-standard residues stand in square brackets, D forms with d. Residues, ends and D or L forms follow the SMILES beside them. *: point of attachment. NMeF = CN[C@@H](Cc1ccccc1)C(=O)O; NMeI = CC[C@H](C)[C@H](NC)C(=O)O; NMeβAla = CN(CCC(=O)[*:2])[*:1]; NMeD = CN[C@@H](CC(=O)O)C(=O)O; NMeL = CN[C@@H](CC(C)C)C(=O)O; NMeV = CN[C@H](C(=O)O)C(C)C; NMeAbu = CC[C@H](NC)C(=O)O; NMeA = CN[C@@H](C)C(=O)O; Piperidide = C1CCN(*)CC1; Abu = CC[C@H](N)C(=O)O; NBuGly = CCCCNCC(=O)O; Sar = CNCC(=O)O; tBu = CC(C)(C)*

How the values were obtained:
[1] = Metabolic stability test: liver microsomal stability assay; type: in vitro ADME, mouse; conditions: for microsomal CLint at 1 µM: male, pH 7.4, presence of NADPH, read-out: Mouse Hepatic Microsome CLh,int NADPH(+)
[2] = Membrane permeability test using Caco-2 cells with preincubation; type: in vitro ADME; conditions: Caco-2
[3] = tested on: Caco-2 cells; assay: as above; type: in vitro ADME
[4] = mouse liver microsomes 0.5 mg protein/mL, compound 1 µM
[5] = mouse liver microsomes 0.5 mg protein/mL, compound 1 µM, absence of NADPH
[6] = preincubation 20 to 24 hours, Apical FaSSIF/HBSS pH 6.0, Basal HBSS 4% BSA pH 7.4, 180 minutes, read-out: Caco2 Papp
[7] = Caco-2 cells, preincubation 20 to 24 hours, apical FaSSIF/HBSS 1% DMSO pH 6.0, basal HBSS 4% BSA pH 7.4, basal sample at 180 minutes

| SMILES | microsomal CLint at 1 µM [1, 4] | Mouse Hepatic Microsome CLh,int NADPH(-) [1, 5] | Papp A→B [2, 6] | Caco2 Papp (10^-6 cm/sec) [3, 7] | Mouse Hepatic Microsome CLh,int NADPH(-) [1] | Papp A→B [2] | Caco2 Papp (10^-6 cm/sec) ([3]; Caco-2) |
| --- | --- | --- | --- | --- | --- | --- | --- |
| CC[C@@H]1NC(=O)[C@H](CC(C)C)N(C)C(=O)C[C@@H](C(=O)N2CCCCC2)N(C)C(=O)[C@H](C(C)C)NC(=O)[C@H](CC(C)C)N(C)C(=O)[C@H](C)NC(=O)[C@H](CC)N(C)C(=O)[C@H](C(C)C)NC(=O)[C@H](CC(C)C)N(C)C(=O)[C@H](C)N(C)C(=O)[C@H](Cc2ccccc2)N(C)C(=O)[C@H](C(C)C)NC(=O)[C@@H]2CCCN2C(=O)[C@H](C(C)C)N(C)C1=O [pd078] ([NMeL][Abu][NMeV]PV[NMeF][NMeA][NMeL]V[NMeAbu]A[NMeL]V[NMeD]-Piperidide; lactam N-14) | 28.3 µL/min/mg | 22.9 µL/min/mg Protein | 2.75 ×10⁻⁶ cm/s | 2.75 10^-6 cm/sec | – | – | – |
| CC[C@H](C)[C@@H]1NC(=O)[C@H](CC(C)C)N(C)C(=O)[C@H](CC(C)C)NC(=O)[C@H](C)N(C)C(=O)C[C@@H](C(=O)N2CCCCC2)N(C)C(=O)[C@H](C)N(C)C(=O)[C@H](CC(C)C)NC(=O)[C@H](C(C)C)N(C)C(=O)[C@H](CC(C)C)N(C)C(=O)CNC(=O)[C@H]([C@@H](C)CC)N(C)C(=O)[C@H](Cc2ccccc2)N(C)C(=O)[C@H](C)NC(=O)[C@H](Cc2ccccc2)N(C)C1=O [pd079] ([NMeA]L[NMeL]I[NMeF]A[NMeF][NMeI]G[NMeL][NMeV]L[NMeA][NMeD]-Piperidide; lactam N-14) | 26.1 µL/min/mg | 38.4 µL/min/mg Protein | 0.12 ×10⁻⁶ cm/s | 0.12 10^-6 cm/sec | – | – | – |
| CC[C@@H]1NC(=O)[C@H](C(C)C)N(C)C(=O)[C@H](C)N(C)C(=O)[C@H](Cc2ccccc2)N(C)C(=O)[C@H](CC(C)C)NC(=O)[C@H](Cc2ccccc2)N(C)C(=O)[C@H](C(C)C)NC(=O)[C@H](CC(C)C)N(C)C(=O)[C@H]([C@@H](C)CC)NC(=O)[C@H](CC(C)C)N(C)C(=O)CN(C)C(=O)C[C@@H](C(=O)N2CCCCC2)N(C)C(=O)CNC(=O)[C@H](C)N(C)C1=O [pd080] ([Sar][NMeL]I[NMeL]V[NMeF]L[NMeF][NMeA][NMeV][Abu][NMeA]G[NMeD]-Piperidide; lactam N-14) | 29.3 µL/min/mg | 27.8 µL/min/mg Protein | 0.25 ×10⁻⁶ cm/s | 0.25 10^-6 cm/sec | – | – | – |
| CC[C@H](C)[C@@H]1NC(=O)[C@H]([C@@H](C)CC)N(C)C(=O)[C@@H](C)NC(=O)C[C@@H](C(=O)N2CCCCC2)N(C)C(=O)[C@H](Cc2ccccc2)N(C)C(=O)[C@H](C(C)C)NC(=O)CCN(C)C(=O)[C@H](CC)N(C)C(=O)[C@H](CC(C)C)N(C)C(=O)[C@H](C)NC(=O)CN(C)C(=O)[C@H](CC(C)C)N(C)C(=O)CCN(C)C(=O)[C@H](Cc2ccccc2)N(C)C1=O [pd081] ([dA][NMeI]I[NMeF][NMeβAla][NMeL][Sar]A[NMeL][NMeAbu][NMeβAla]V[NMeF][NMeD]-Piperidide; lactam N-14) | – | – | – | – | 5.7 µL/min/mg Protein | 0.02 ×10⁻⁶ cm/s | 0.02 10^-6 cm/sec |
| CCCCN1CC(=O)N(C)[C@@H](Cc2ccccc2)C(=O)N[C@@H](COC(C)(C)C)C(=O)N(C)[C@@H](CC(C)C)C(=O)N(C)[C@@H](CC)C(=O)N(C)[C@@H](C)C(=O)N[C@@H]([C@@H](C)CC)C(=O)N(C)[C@@H](C(C)C)C(=O)N[C@@H](C(C)C)C(=O)N(C)[C@H](C(=O)N2CCCCC2)CC(=O)N(C)CCC(=O)N(C)[C@@H](CC(C)C)C(=O)N[C@@H]([C@@H](C)CC)C(=O)N(C)[C@@H](Cc2ccccc2)C1=O [pd082] ([NMeβAla][NMeL]I[NMeF][NBuGly][NMeF]S(tBu)[NMeL][NMeAbu][NMeA]I[NMeV]V[NMeD]-Piperidide; lactam N-14) | 32.6 µL/min/mg | 38.5 µL/min/mg Protein | 0.03 ×10⁻⁶ cm/s | 0.03 10^-6 cm/sec | – | – | – |
| CC[C@@H]1NC(=O)[C@H](CC(C)C)N(C)C(=O)[C@H](C)NC(=O)[C@@H]2CCCN2C(=O)[C@H](CC)N(C)C(=O)[C@H](CC(C)C)N(C)C(=O)CN(C)C(=O)[C@H](Cc2ccccc2)N(C)C(=O)[C@H]([C@@H](C)CC)NC(=O)CCN(C)C(=O)[C@H](C(C)C)N(C)C(=O)[C@H](COC(C)(C)C)NC(=O)[C@H](CC(C)C)N(C)C(=O)C[C@@H](C(=O)N2CCCCC2)N(C)C1=O [pd083] ([NMeL]S(tBu)[NMeV][NMeβAla]I[NMeF][Sar][NMeL][NMeAbu]PA[NMeL][Abu][NMeD]-Piperidide; lactam N-14) | 11.4 µL/min/mg | 7.3 µL/min/mg Protein | 0.04 ×10⁻⁶ cm/s | 0.04 10^-6 cm/sec | – | – | – |
| CC[C@H](C)[C@@H]1NC(=O)[C@H](CC(C)C)N(C)C(=O)[C@H](CC(C)C)N(C)C(=O)[C@H](C)N(C)C(=O)C[C@@H](C(=O)N2CCCCC2)N(C)C(=O)[C@H](C)N(C)C(=O)[C@H](CC(C)C)NC(=O)[C@H](C(C)C)N(C)C(=O)[C@H](CC(C)C)N(C)C(=O)CNC(=O)[C@H]([C@@H](C)CC)N(C)C(=O)[C@H](Cc2ccccc2)N(C)C(=O)[C@H](C)NC(=O)[C@H](Cc2ccccc2)N(C)C1=O [pd084] ([NMeA][NMeL][NMeL]I[NMeF]A[NMeF][NMeI]G[NMeL][NMeV]L[NMeA][NMeD]-Piperidide; lactam N-14) | 39 µL/min/mg | 37.8 µL/min/mg Protein | 0.21 ×10⁻⁶ cm/s | 0.21 10^-6 cm/sec | – | – | – |
| CC[C@H](C)[C@@H]1NC(=O)[C@H](CC(C)C)N(C)C(=O)CN(C)C(=O)C[C@@H](C(=O)N2CCCCC2)N(C)C(=O)CNC(=O)[C@H](C)N(C)C(=O)[C@H](CC)N(C)C(=O)[C@H](C(C)C)N(C)C(=O)[C@H](C)N(C)C(=O)[C@H](Cc2ccccc2)N(C)C(=O)[C@H](CC(C)C)NC(=O)[C@H](Cc2ccccc2)N(C)C(=O)[C@H](C(C)C)NC(=O)[C@H](CC(C)C)N(C)C1=O [pd085] ([Sar][NMeL]I[NMeL]V[NMeF]L[NMeF][NMeA][NMeV][NMeAbu][NMeA]G[NMeD]-Piperidide; lactam N-14) | 26.9 µL/min/mg | 28.9 µL/min/mg Protein | 0.17 ×10⁻⁶ cm/s | 0.17 10^-6 cm/sec | – | – | – |
| CC(C)C[C@@H]1NC(=O)[C@H](CC(C)C)N(C)C(=O)[C@H]([C@@H](C)O)NC(=O)[C@H](C(C)C)N(C)C(=O)[C@H](Cc2ccccc2)N(C)C(=O)[C@@H](C(C)C)NC(=O)C[C@@H](C(=O)N2CCCCC2)N(C)C(=O)[C@H](C)N(C)C(=O)[C@H](Cc2ccccc2)N(C)C(=O)[C@H](C)NC(=O)[C@H](COC(C)(C)C)NC(=O)[C@H](CC(C)C)N(C)C(=O)[C@H](C(C)C)NC(=O)CN(C)C1=O [pd086] ([dV][NMeF][NMeV]T[NMeL]L[Sar]V[NMeL]S(tBu)A[NMeF][NMeA][NMeD]-Piperidide; lactam N-14) | 20.1 µL/min/mg | 20.0 µL/min/mg Protein | 0.06 ×10⁻⁶ cm/s | 0.06 10^-6 cm/sec | – | – | – |
